Earlier results in US20200197494A1, “PEPTIDE COMPOSITIONS AND METHODS OF USE” (Dauntless Pharmaceuticals, priority 2017, published 2020).

Settings: subcutaneous administration; background statement

For `C[C@@H](O)[C@@H]1NC(=O)[C@H](CCCCN)NC(=O)[C@@H](Cc2c[nH]c3ccccc23)NC(=O)[C@H](Cc2ccccc2)NC(=O)[C@@H](NC(=O)[C@H](N)Cc2ccccc2)CSSC[C@@H](C(=O)N[C@H](CO)[C@@H](C)O)NC1=O` [octreotide, D-phenylalanyl-L-cysteinyl-L-phenylalanyl-D-tryptophyl-L-lysyl-L-threonyl-N-[2-hydroxy-1-(hydroxymethyl)propyl]-L-Cysteinamide, cyclic (2→7)-disulfide], the “peptide present in the blood stream (bioavailability)” value is given as ~100%.
